One data set concerns the target CDK9/CycT1 (Homo sapiens (Human), UniProt P50750). Description: CDK9/CycT1 kinase assay (Method 1a). The data set is classed as biochemical. Particulars: for IC50: 10 μM ATP; for Selectivity CDK9/CDK2: derived from Methods 1a. and 2.
Data set [1] deals with B16F10, mouse melanoma cells. Description: Proliferation assay, B16F10 (Method 3). The format is cell-based. The settings on record: B16F10, 4 days, crystal violet, read-out: Inhibition of B16F10 cell proliferation IC50. As for the experimental part: After 24 hours, the cells of one plate (zero-point plate) were stained with crystal violet (see below), while the medium of the other plates was replaced by fresh culture medium (200 μl), to which the test substances were added in various concentrations (0 μM, as well as in the range of 0.001-10 μM; the final concentration of the solvent dimethyl sulfoxide was 0.5%). The cells were incubated for 4 days in the presence of test substances. Cell proliferation was determined by staining the cells with crystal violet: the cells were fixed by adding 20 μl/measuring point of an 11% glutaric aldehyde solution for 15 minutes at room temperature. After three washing cycles of the fixed cells with water, the plates were dried at room temperature. The cells were stained by adding 100 μl/measuring point of a 0.1% crystal violet solution (pH 3.0). After three washing cycles of the stained cells with water, the plates were dried at room temperature. The dye was dissolved by adding 100 μl/measuring point of a 10% acetic acid solution. The extinction was determined by photometry at a wavelength of 595 nm. The change of cell number, in percent, was calculated by normalization of the measured values to the extinction values of the zero-point plate (=0%) and the extinction of the untreated (0 μm) cells (=100%).

Data set [2] can be described thus: In vitro metabolic stability in rat hepatocytes (Method 5). The data set is classed as in vitro ADME, Han Wistar rat. The settings on record: 1 μM test compound. As for the experimental part:
5. Investigation of In Vitro Metabolic Stability in Rat Hepatocytes
Hepatocytes from Han Wistar rats were isolated via a 2-step perfusion method. After perfusion, the liver was carefully removed from the rat: the liver capsule was opened and the hepatocytes were gently shaken out into a Petri dish with ice-cold Williams medium E (purchased from Sigma Aldrich Life Science, St Louis, Mo.). The resulting cell suspension was filtered through sterile gaze in 50 ml falcon tubes and centrifuged at 50×g for 3 min at room temperature. The cell pellet was resuspended in 30 ml WME and centrifuged through a Percoll® gradient for 2 times at 100×g. The hepatocytes were washed again with Williams' medium E (WMA) and resuspended in medium containing 5% Fetal calf serum (FCS, purchased from Invitrogen, Auckland, NZ). Cell viability was determined by trypan blue exclusion.
For the metabolic stability assay liver cells were distributed in WME containing 5% FCS to glass vials at a density of 1.0×10^6 vital cells/ml. The test compound was added to a final concentration of 1 μM. During incubation, the hepatocyte suspensions were continuously shaken and aliquots were taken at 2, 8, 16, 30, 45 and 90 min, to which equal volumes of cold acetonitrile were immediately added. Samples were frozen at −20° C. over night, after subsequently centrifuged for 15 minutes at 3000 rpm and the supernatant was analyzed with an Agilent 1200 HPLC-system with LCMS/MS detection.
The half-life of a test compound was determined from the concentration-time plot. From the half-life the intrinsic clearances were calculated. Together with the additional parameters liver blood flow, amount of liver cells in vivo and in vitro.

Data set [3] deals with HeLa, human cervical tumour cells. Description: Proliferation assay, HeLa (Method 3). The settings on record: 4 days, crystal violet, read-out: Inhibition of HeLa cell proliferation IC50. The data set is classed as cell-based. The procedure, abridged: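 Following a 24 h preculture, medium was replaced with compound-containing medium (0.001–10 μM; final DMSO 0.5%) and cells were incubated 4 days. Fixed cells were stained with crystal violet, the dye solubilized, and extinction at 595 nm was measured. Percent change was calculated relative to the zero-point and untreated controls.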

Read-outs that look alike come from different tables or passages of the source.

Sequence of CDK9/CycT1 (P50750 whole entry): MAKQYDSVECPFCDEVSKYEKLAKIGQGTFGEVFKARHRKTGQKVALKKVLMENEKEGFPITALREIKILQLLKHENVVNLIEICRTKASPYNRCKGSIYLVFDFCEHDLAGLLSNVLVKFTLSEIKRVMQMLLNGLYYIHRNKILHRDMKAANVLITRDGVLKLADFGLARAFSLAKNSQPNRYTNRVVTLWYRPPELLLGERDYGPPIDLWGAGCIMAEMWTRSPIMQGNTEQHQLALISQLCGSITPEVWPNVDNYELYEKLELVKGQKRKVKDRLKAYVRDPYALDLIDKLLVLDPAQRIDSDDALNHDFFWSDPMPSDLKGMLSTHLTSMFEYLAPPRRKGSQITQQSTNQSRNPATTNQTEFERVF
Sequence of CDK9/CycT1 (O60563 whole entry partner): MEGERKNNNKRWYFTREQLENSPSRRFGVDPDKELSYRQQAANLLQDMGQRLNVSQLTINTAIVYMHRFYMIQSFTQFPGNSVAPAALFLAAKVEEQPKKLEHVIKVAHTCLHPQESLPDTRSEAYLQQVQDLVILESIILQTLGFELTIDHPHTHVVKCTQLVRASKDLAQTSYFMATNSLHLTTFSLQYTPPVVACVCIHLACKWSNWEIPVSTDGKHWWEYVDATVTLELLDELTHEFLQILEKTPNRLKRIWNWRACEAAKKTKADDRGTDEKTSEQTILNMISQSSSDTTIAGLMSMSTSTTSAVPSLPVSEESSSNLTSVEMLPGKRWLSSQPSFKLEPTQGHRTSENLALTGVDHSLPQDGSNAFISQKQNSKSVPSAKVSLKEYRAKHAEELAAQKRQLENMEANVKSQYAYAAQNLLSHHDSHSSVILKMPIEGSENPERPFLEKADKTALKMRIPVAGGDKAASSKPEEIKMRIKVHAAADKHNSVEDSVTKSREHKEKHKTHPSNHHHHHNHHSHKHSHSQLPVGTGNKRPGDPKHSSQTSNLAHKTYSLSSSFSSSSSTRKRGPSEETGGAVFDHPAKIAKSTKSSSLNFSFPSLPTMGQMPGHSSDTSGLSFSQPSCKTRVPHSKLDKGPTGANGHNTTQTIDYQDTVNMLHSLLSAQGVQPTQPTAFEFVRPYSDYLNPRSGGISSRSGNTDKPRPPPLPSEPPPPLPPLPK

In the case of `CS(=N)(=O)Cc1cc(Nc2ncc(F)c(-c3ccc(F)cc3F)n2)cc(S(F)(F)(F)(F)F)c1` (single isomer, unassigned) [Example 32, 4-(2,4-Difluorophenyl)-5-fluoro-N-{3-[(S-methylsulfonimidoyl)methyl]-5-(pentafluoro-λ^6-sulfanyl)phenyl}pyrimidin-2-amine], the IC50 at CDK9/CycT1 came out at 6 nM; in data set [1] (Mus musculus, B16-F10, 96 h), 406 nM; in data set [3], 331 nM. Besides, the “Selectivity CDK9/CDK2” value at CDK9/CycT1 was determined as 263. Further, the “maximal calculated oral bioavailability (Fmax) based on stability data in rat Hepatocytes” value (“maximal calculated oral bioavailability” below) in data set [2] is 91%.

Take `CS(=O)(Cc1cc(Nc2ncc(F)c(-c3ccc(F)cc3F)n2)cc(S(F)(F)(F)(F)F)c1)=NC(N)=O` (single isomer, unassigned) [Example 33, 1-{[3-{[4-(2,4-Difluorophenyl)-5-fluoropyrimidin-2-yl]amino}-5-(pentafluoro-λ^6-sulfanyl)benzyl](methyl)oxido-λ^6-sulfanylidene}urea]: the IC50 at CDK9/CycT1 came out at 16 nM; in data set [1] (Mus musculus, B16-F10, 96 h) it was 611 nM; in data set [3] (Homo sapiens, 96 h), 278 nM. For the same compound, the “Selectivity CDK9/CDK2” value on CDK9/CycT1 worked out at 98.

Turning to `CS(=O)(Cc1cc(Nc2ncc(F)c(-c3ccc(F)cc3F)n2)cc(C(F)(F)F)c1)=NC#N` (single isomer, unassigned) [Example 2, {[3-{[4-(2,4-Difluorophenyl)-5-fluoropyrimidin-2-yl]amino}-5-(trifluoromethyl)benzyl](methyl)oxido-λ^6-sulfanylidene}cyanamide], the IC50 at CDK9/CycT1 was 7 nM; in data set [1] (Mus musculus, B16-F10, 96 h), 390 nM; in data set [3] (Homo sapiens, 96 h), 350 nM. Further, at CDK9/CycT1, the “Selectivity CDK9/CDK2” value was 166. Moreover, the “maximal calculated oral bioavailability” value in data set [2] is listed as 79%.

`CS(=O)(Cc1cc(Nc2ncc(F)c(-c3ccc(F)cc3F)n2)cc(S(F)(F)(F)(F)F)c1)=NC#N` (racemic) [Example 28, (rac)-{[3-{[4-(2,4-Difluorophenyl)-5-fluoropyrimidin-2-yl]amino}-5-(pentafluoro-λ^6-sulfanyl)benzyl](methyl)oxido-λ^6-sulfanylidene}cyanamide]: the IC50 against CDK9/CycT1 amounted to 6 nM; in data set [1] (Mus musculus, B16-F10, 96 h), 363 nM; in data set [3] (Homo sapiens, 96 h) it was 262 nM. For the same compound, the “Selectivity CDK9/CDK2” value at CDK9/CycT1 is recorded as 210.

For `CS(=N)(=O)Cc1cc(Nc2ncc(F)c(-c3ccc(F)cc3F)n2)cc(C(F)(F)F)c1` (racemic) [Example 4, (rac)-4-(2,4-Difluorophenyl)-5-fluoro-N-{3-[(S-methylsulfonimidoyl)methyl]-5-(trifluoromethyl)phenyl}pyrimidin-2-amine], the IC50 against CDK9/CycT1 came out at 10 nM; in data set [3] (Homo sapiens, 96 h) it was 960 nM. Also, the “Selectivity CDK9/CDK2” value on CDK9/CycT1 came to 88. In data set [2], the “maximal calculated oral bioavailability” value is 91%.

With `CS(=O)(Cc1cc(Nc2ncc(F)c(-c3ccc(F)cc3F)n2)cc(C(F)(F)F)c1)=NC(N)=O` (racemic) [Example 7, (rac)-1-{[3-{[4-(2,4-Difluorophenyl)-5-fluoropyrimidin-2-yl]amino}-5-(trifluoromethyl)benzyl](methyl)oxido-λ^6-sulfanylidene}urea], at CDK9/CycT1, the IC50 was 12 nM and the “Selectivity CDK9/CDK2” value amounted to 98. In addition, the “maximal calculated oral bioavailability” value in data set [2] is 80%. Moreover, the IC50 in data set [3] (Homo sapiens, 96 h) was 470 nM.

`CS(=O)(Cc1cc(Nc2ncc(F)c(-c3ccc(F)cc3F)n2)cc(C(F)(F)F)c1)=NC(N)=O` (single isomer, unassigned) [Example 23, 1-{[3-{[4-(2,4-Difluorophenyl)-5-fluoropyrimidin-2-yl]amino}-5-(trifluoromethyl)benzyl](methyl)oxido-λ^6-sulfanylidene}urea]: the IC50 against CDK9/CycT1 worked out at 4 nM; in data set [1] (Mus musculus, B16-F10, 96 h) it was 380 nM; in data set [3], 290 nM. For the same compound, at CDK9/CycT1, the “Selectivity CDK9/CDK2” value is given as 88. Moreover, the “maximal calculated oral bioavailability” value in data set [2] was 93%.

Take `CS(=N)(=O)Cc1cc(Cl)cc(Nc2ncc(F)c(-c3ccc(F)cc3F)n2)c1` (racemic) [Example 15, (rac)-N-{3-chloro-5-[(S-methylsulfonimidoyl)methyl]phenyl}-4-(2,4-difluorophenyl)-5-fluoropyrimidin-2-amine]: on CDK9/CycT1, the IC50 is 24 nM and the “Selectivity CDK9/CDK2” value worked out at 26. The “maximal calculated oral bioavailability” value in data set [2] is reported as 79%. Also, the IC50 in data set [3] (Homo sapiens, 96 h) was 2210 nM.

Consider `CS(=O)(Cc1cc(Nc2ncc(F)c(-c3ccc(F)cc3F)n2)cc(C(F)(F)F)c1)=NC#N` (single isomer, unassigned) [Example 3, {[3-{[4-(2,4-Difluorophenyl)-5-fluoropyrimidin-2-yl]amino}-5-(trifluoromethyl)benzyl](methyl)oxido-λ^6-sulfanylidene}cyanamide], for which the IC50 was 8 nM on CDK9/CycT1, 340 nM in data set [1] and 590 nM in data set [3]. In addition, the “Selectivity CDK9/CDK2” value at CDK9/CycT1 was 170. Further, the “maximal calculated oral bioavailability” value in data set [2] is 76%.

In the case of `CS(=O)(Cc1cc(Nc2ncc(F)c(-c3ccc(F)cc3F)n2)cc(C(F)(F)F)c1)=NC#N` (racemic) [Example 1, (rac)-{[3-{[4-(2,4-Difluorophenyl)-5-fluoropyrimidin-2-yl]amino}-5-(trifluoromethyl)benzyl](methyl)oxido-λ^6-sulfanylidene}cyanamide], on CDK9/CycT1, the IC50 was 13 nM and the “Selectivity CDK9/CDK2” value amounted to 105. Further, the “maximal calculated oral bioavailability” value in data set [2] is reported as 75%. Moreover, in data set [3] (Homo sapiens, 96 h), the IC50 is 440 nM.
